Results from EP4810052A2, “HCRHR2 SELECTIVE POLYPEPTIDES” (Gubra A/S, priority 2023, dated 2026).
Starred links: 1 amine or outer side, 2 acyl side, 3 side chain; linkers in the order of their positions; H or OH if unused. Non-standard residues stand in square brackets, D forms with d. Residues, ends and D or L forms follow the SMILES beside them. Groups on a side chain read outwards from the residue. *: point of attachment. C20 diacid = O=C(O)CCCCCCCCCCCCCCCCCCC(=O)*; γGlu = O=C(O)[C@H](CCC(=O)[*:2])N[*:1]; NMeI = CC[C@H](C)[C@H](NC)C(=O)O; AEEA = NCCOCCOCC(=O)O

Target: T1, hCRHR2 (Homo sapiens, UniProt Q13324)
T1 sequence (Q13324 1-411): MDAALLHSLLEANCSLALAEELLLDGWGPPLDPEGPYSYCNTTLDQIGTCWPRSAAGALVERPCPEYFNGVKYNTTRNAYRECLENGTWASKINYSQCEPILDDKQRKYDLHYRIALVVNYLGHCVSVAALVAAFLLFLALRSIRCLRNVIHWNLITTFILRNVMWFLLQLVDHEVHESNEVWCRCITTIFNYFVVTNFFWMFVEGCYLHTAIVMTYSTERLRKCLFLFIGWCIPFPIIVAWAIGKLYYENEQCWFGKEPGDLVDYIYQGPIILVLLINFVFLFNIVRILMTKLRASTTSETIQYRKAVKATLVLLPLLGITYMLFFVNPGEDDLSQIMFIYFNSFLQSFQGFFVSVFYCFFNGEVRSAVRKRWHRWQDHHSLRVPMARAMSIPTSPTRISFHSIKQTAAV
Assay: HTRF cAMP assay, determination of hCRHR2 potency (peptide libraries 5 conc., purified peptides 11 conc.)
Format: cell-based
Details: for Selectivity ratio (hCRHR1/ hCRHR2): hCRHR1-EC50/hCRHR2-EC50; for EC50: purified peptides, CHO-K1 cells stably expressing hCRHR2, cAMP HTRF, read-out: hCRHR2 EC50
From the text: HTRF (CisBio) cAMP assay: The assay technology has thoroughly been described in the CisBio HTRF cAMP assay Kit manual (# 62AM4PEC). Briefly, time resolved fluorescence technic was applied to measure cAMP. This technic is based on a competitive immunoassay using cryptate-labelled anti-cAMP antibody and d2-labeled cAMP. In the absence of cellular cAMP, the anti-cAMP cryptate conjugate may get into proximity to cAMP-d2 conjugate and energy (FRET) can be transferred from cryptate to d2.
CHO-K1 cells stably expressing the human corticotropin-releasing hormone receptor 2 (Eurofins/DiscoverX, Cat #95-0048C2 hCRHR2 stable monoclonal cell lines) were used as cells in suspension, brought to life from frozen cell stocks immediately before assay performance.
Concentration-response evaluation of compounds was performed with 5 concentrations of agonist peptides and EC50 values were calculated by nonlinear regression using sigmoid concentration-response with variable slope.
Concentration-response evaluation of compounds was performed with 11 concentrations of agonist peptides and EC50 values were calculated by nonlinear regression using sigmoid concentration-response with variable slope.

SMILES	Selectivity ratio (hCRHR1/ hCRHR2)	EC50
CC[C@H](C)[C@H](NC(C)=O)C(=O)N[C@H](C(=O)N[C@@H](CC(C)C)C(=O)N[C@@H](CO)C(=O)N[C@@H](CC(C)C)C(=O)N[C@@H](CC(=O)O)C(=O)N[C@H](C(=O)N1CCC[C@H]1C(=O)N[C@H](C(=O)NCC(=O)N[C@@H](CC(C)C)C(=O)N[C@@H](CC(C)C)C(=O)N[C@@H](CCC(N)=O)C(=O)N[C@H](C(=O)N[C@@H](CC(C)C)C(=O)N[C@@H](CC(C)C)C(=O)N[C@@H](CCC(=O)O)C(=O)N[C@@H](CCC(N)=O)C(=O)N[C@@H](C)C(=O)N[C@@H](CCCNC(=N)N)C(=O)N[C@@H](C)C(=O)N[C@@H](CCCNC(=N)N)C(=O)N[C@@H](C)C(=O)N[C@@H](C)C(=O)N[C@@H](CCCNC(=N)N)C(=O)N[C@@H](CCC(=O)O)C(=O)N[C@@H](CCC(N)=O)C(=O)N[C@@H](C)C(=O)N[C@@H](CCCCNC(=O)COCCOCCNC(=O)COCCOCCNC(=O)CC[C@H](NC(=O)CC[C@H](NC(=O)CCCCCCCCCCCCCCCCCCC(=O)O)C(=O)O)C(=O)O)C(=O)N[C@H](C(=O)N[C@@H](CC(N)=O)C(=O)N[C@@H](C)C(=O)N[C@@H](CCC(=O)O)C(=O)N[C@H](C(=O)N[C@@H](CC(C)C)C(=O)N[C@@H](C)C(=O)N[C@@H](CCC(=O)O)C(=O)N[C@H](C(N)=O)C(C)C)[C@@H](C)CC)[C@@H](C)O)[C@@H](C)CC)[C@@H](C)CC)C(C)C)C(C)C [SEQ ID NO: 8] (Ac-IVLSLDVPIGLLQILLEQARARAAREQAK([AEEA-AEEA-γGlu-γGlu-C20 diacid])TNAEILAEV-NH2)	400	1.4 nM
CC[C@H](C)[C@H](NC)C(=O)N[C@H](C(=O)N[C@@H](CC(C)C)C(=O)N[C@@H](CO)C(=O)N[C@@H](CC(C)C)C(=O)N[C@@H](CC(=O)O)C(=O)N[C@H](C(=O)N1CCC[C@H]1C(=O)N[C@H](C(=O)NCC(=O)N[C@@H](CC(C)C)C(=O)N[C@@H](CC(C)C)C(=O)N[C@@H](CCC(N)=O)C(=O)N[C@H](C(=O)N[C@@H](CC(C)C)C(=O)N[C@@H](CC(C)C)C(=O)N[C@@H](CCC(=O)O)C(=O)N[C@@H](CCC(N)=O)C(=O)N[C@@H](CCC(=O)O)C(=O)N[C@@H](CCCCN)C(=O)N[C@@H](CCC(N)=O)C(=O)N[C@@H](CCC(=O)O)C(=O)N[C@@H](CCCCN)C(=O)N[C@@H](CCC(=O)O)C(=O)N[C@@H](CCCCN)C(=O)N[C@@H](CCC(N)=O)C(=O)N[C@@H](CCC(N)=O)C(=O)N[C@@H](C)C(=O)N[C@@H](CCCCNC(=O)COCCOCCNC(=O)COCCOCCNC(=O)CC[C@H](NC(=O)CC[C@H](NC(=O)CCCCCCCCCCCCCCCCCCC(=O)O)C(=O)O)C(=O)O)C(=O)N[C@H](C(=O)N[C@@H](CC(N)=O)C(=O)N[C@@H](C)C(=O)N[C@@H](CCC(N)=O)C(=O)N[C@H](C(=O)N[C@@H](CC(C)C)C(=O)N[C@@H](C)C(=O)N[C@@H](CCC(N)=O)C(=O)N[C@H](C(N)=O)C(C)C)[C@@H](C)CC)[C@@H](C)O)[C@@H](C)CC)[C@@H](C)CC)C(C)C)C(C)C [SEQ ID NO: 9, reference compound] (H-[NMeI]VLSLDVPIGLLQILLEQEKQEKEKQQAK([AEEA-AEEA-γGlu-γGlu-C20 diacid])TNAQILAQV-NH2)	392	1.3 nM
CC[C@H](C)[C@H](NC)C(=O)N[C@H](C(=O)N[C@H](C(=O)N[C@@H](CO)C(=O)N[C@@H](CC(C)C)C(=O)N[C@@H](CC(=O)O)C(=O)N[C@H](C(=O)N1CCC[C@H]1C(=O)N[C@H](C(=O)NCC(=O)N[C@@H](CC(C)C)C(=O)N[C@@H](CC(C)C)C(=O)N[C@@H](CCC(N)=O)C(=O)N[C@H](C(=O)N[C@@H](CC(C)C)C(=O)N[C@@H](CC(C)C)C(=O)N[C@@H](CCC(=O)O)C(=O)N[C@@H](CCC(N)=O)C(=O)N[C@@H](CCC(=O)O)C(=O)N[C@@H](CCCCN)C(=O)N[C@@H](CCC(N)=O)C(=O)N[C@@H](CCC(=O)O)C(=O)N[C@@H](CCCCN)C(=O)N[C@@H](CCC(=O)O)C(=O)N[C@@H](CCCCN)C(=O)N[C@@H](CCC(N)=O)C(=O)N[C@@H](CCC(N)=O)C(=O)N[C@@H](C)C(=O)N[C@@H](CCCCNC(=O)COCCOCCNC(=O)COCCOCCNC(=O)CC[C@H](NC(=O)CC[C@H](NC(=O)CCCCCCCCCCCCCCCCCCC(=O)O)C(=O)O)C(=O)O)C(=O)N[C@H](C(=O)N[C@@H](CC(N)=O)C(=O)N[C@@H](C)C(=O)N[C@@H](CCC(=O)O)C(=O)N[C@H](C(=O)N[C@@H](CC(C)C)C(=O)N[C@@H](C)C(=O)N[C@@H](CCC(N)=O)C(=O)N[C@H](C(N)=O)C(C)C)[C@@H](C)CC)[C@@H](C)O)[C@@H](C)CC)[C@@H](C)CC)C(C)C)[C@@H](C)O)C(C)C [SEQ ID NO: 10, reference compound] (H-[NMeI]VTSLDVPIGLLQILLEQEKQEKEKQQAK([AEEA-AEEA-γGlu-γGlu-C20 diacid])TNAEILAQV-NH2)	139	0.49 nM
CC[C@H](C)[C@H](NC(=O)[C@H](CCC(=O)O)NC(=O)[C@H](C)NC(=O)[C@H](CC(N)=O)NC(=O)[C@@H](NC(=O)[C@@H](NC(=O)[C@H](C)NC(=O)[C@H](CCC(N)=O)NC(=O)[C@H](CCC(=O)O)NC(=O)[C@H](CCCNC(=N)N)NC(=O)[C@H](C)NC(=O)[C@H](C)NC(=O)[C@H](CCCNC(=N)N)NC(=O)[C@H](C)NC(=O)[C@H](CCCNC(=N)N)NC(=O)[C@H](C)NC(=O)[C@H](CCC(N)=O)NC(=O)[C@H](CCC(=O)O)NC(=O)[C@H](CC(C)C)NC(=O)[C@H](CC(C)C)NC(=O)[C@@H](NC(=O)[C@H](CCC(N)=O)NC(=O)[C@H](CC(C)C)NC(=O)[C@H](CC(C)C)NC(=O)CNC(=O)[C@@H](NC(=O)[C@@H]1CCCN1C(=O)[C@@H](NC(=O)[C@H](CC(=O)O)NC(=O)[C@H](CC(C)C)NC(=O)[C@H](CO)NC(=O)[C@H](CC(C)C)NC(=O)[C@@H](NC(=O)[C@@H](NC(=O)[C@@H](N)CCCCNC(=O)COCCOCCNC(=O)COCCOCCNC(=O)CC[C@H](NC(=O)CC[C@H](NC(=O)CC[C@H](NC(=O)CCCCCCCCCCCCCCCCCCC(=O)O)C(=O)O)C(=O)O)C(=O)O)[C@@H](C)CC)C(C)C)C(C)C)[C@@H](C)CC)[C@@H](C)CC)[C@@H](C)O)[C@@H](C)O)C(=O)N[C@@H](CC(C)C)C(=O)N[C@@H](C)C(=O)N[C@@H](CCC(=O)O)C(=O)N[C@H](C(N)=O)C(C)C [SEQ ID NO: 11, reference compound] (H-K([AEEA-AEEA-γGlu-γGlu-γGlu-C20 diacid])IVLSLDVPIGLLQILLEQARARAAREQATTNAEILAEV-NH2)	419	1.6 nM
CC[C@H](C)[C@H](NC(=O)COCCOCCNC(=O)COCCOCCNC(=O)CC[C@H](NC(=O)CC[C@H](NC(=O)CCCCCCCCCCCCCCCCCCC(=O)O)C(=O)O)C(=O)O)C(=O)N[C@H](C(=O)N[C@@H](CC(C)C)C(=O)N[C@@H](CO)C(=O)N[C@@H](CC(C)C)C(=O)N[C@@H](CC(=O)O)C(=O)N[C@H](C(=O)N1CCC[C@H]1C(=O)N[C@H](C(=O)NCC(=O)N[C@@H](CC(C)C)C(=O)N[C@@H](CC(C)C)C(=O)N[C@@H](CCC(N)=O)C(=O)N[C@H](C(=O)N[C@@H](CC(C)C)C(=O)N[C@@H](CC(C)C)C(=O)N[C@@H](CCC(=O)O)C(=O)N[C@@H](CCC(N)=O)C(=O)N[C@@H](C)C(=O)N[C@@H](CCCNC(=N)N)C(=O)N[C@@H](C)C(=O)N[C@@H](CCCNC(=N)N)C(=O)N[C@@H](C)C(=O)N[C@@H](C)C(=O)N[C@@H](CCCNC(=N)N)C(=O)N[C@@H](CCC(=O)O)C(=O)N[C@@H](CCC(N)=O)C(=O)N[C@@H](C)C(=O)N[C@H](C(=O)N[C@H](C(=O)N[C@@H](CC(N)=O)C(=O)N[C@@H](C)C(=O)N[C@@H](CCC(=O)O)C(=O)N[C@H](C(=O)N[C@@H](CC(C)C)C(=O)N[C@@H](C)C(=O)N[C@@H](CCC(=O)O)C(=O)N[C@H](C(N)=O)C(C)C)[C@@H](C)CC)[C@@H](C)O)[C@@H](C)O)[C@@H](C)CC)[C@@H](C)CC)C(C)C)C(C)C [SEQ ID NO: 260] ({C20 diacid-γGlu-γGlu-AEEA-AEEA}-IVLSLDVPIGLLQILLEQARARAAREQATTNAEILAEV-NH2)	79	1.4 nM
